Laboratory results reported in patent US9511058B2, “Methods for using carboxamide, sulfonamide and amine compounds” (Rigel Pharmaceuticals, Inc., priority 2010, dated 2016).

Molecular target: AMPK
Experiment: AMPK activation, enzyme-linked immunosorbent assay
Format: biochemical
Settings: compounds of Table 5 (Table 10)

| SMILES | EC50 |
| --- | --- |
| Cc1ccc(CN2CCC(Oc3ccc(C(=O)NC4CCN(Cc5ccc(F)cc5)CC4)cc3Cl)CC2)cc1 [5-68, 3-chloro-N-(1-(4-fluorobenzyl)piperidin-4-yl)-4-(1-(4-methylbenzyl)piperidin-4-yloxy)benzamide] | < 1000 nM |
| O=C(NC1CCN(Cc2ccccc2)CC1)c1ccc(OC2CCN(Cc3ccc(F)c(F)c3)CC2)c(F)c1 [5-69, N-(1-benzylpiperidin-4-yl)-4-(1-(3,4-difluorobenzyl)piperidin-4-yloxy)-3-fluorobenzamide] | < 1000 nM |
| N#Cc1ccc(CN2CCC(Oc3ccc(C(=O)NC4CCN(Cc5ccc(Cl)cc5)CC4)cc3F)CC2)cc1 [5-70, N-(1-(4-chlorobenzyl)piperidin-4-yl)-4-(1-(4-cyanobenzyl)piperidin-4-yloxy)-3-fluorobenzamide] | < 1000 nM |
| O=C(NC1CCN(Cc2ccc(Cl)cc2)CC1)c1ccc(OC2CCN(Cc3ccc(F)c(F)c3)CC2)c(F)c1 [5-71, N-(1-(4-chlorobenzyl)piperidin-4-yl)-4-(1-(3,4-difluorobenzyl)piperidin-4-yloxy)-3-fluorobenzamide] | < 1000 nM |
| O=C(NC1CCN(Cc2ccc(Cl)cc2)CC1)c1ccc(OC2CCN(Cc3ccc(Cl)cc3)CC2)c(F)c1 [5-72, N-(1-(4-chlorobenzyl)piperidin-4-yl)-4-(1-(4-chlorobenzyl)piperidin-4-yloxy)-3-fluorobenzamide] | < 1000 nM |
| Cc1ccc(CN2CCC(Oc3ccc(C(=O)NC4CCN(Cc5ccc(Cl)cc5)CC4)cc3F)CC2)cc1 [5-73, N-(1-(4-chlorobenzyl)piperidin-4-yl)-3-fluoro-4-(1-(4-methylbenzyl)piperidin-4-yloxy)benzamide] | < 1000 nM |
| O=C(NC1CCN(Cc2ccccc2)CC1)c1ccc(OC2CCN(Cc3ccc(F)c(F)c3)CC2)c(Cl)c1 [5-74, N-(1-benzylpiperidin-4-yl)-3-chloro-4-(1-(3,4-difluorobenzyl)piperidin-4-yloxy)benzamide] | < 1000 nM |
| O=C(NC1CCN(Cc2ccccc2)CC1)c1cc(Cl)c(OC2CCN(Cc3ccc(Cl)cc3)CC2)c(Cl)c1 [5-75, N-(1-benzylpiperidin-4-yl)-3,5-dichloro-4-(1-(4-chlorobenzyl)piperidin-4-yloxy)benzamide] | < 1000 nM |
| O=C(NC1CCN(Cc2ccccc2)CC1)c1cc(Cl)c(OC2CCN(Cc3ccc(F)c(F)c3)CC2)c(Cl)c1 [5-76, N-(1-benzylpiperidin-4-yl)-3,5-dichloro-4-(1-(3,4-difluorobenzyl)piperidin-4-yloxy)benzamide] | < 1000 nM |
| N#Cc1ccc(CN2CCC(Oc3c(Cl)cc(C(=O)NC4CCN(Cc5ccccc5)CC4)cc3Cl)CC2)cc1 [5-77, N-(1-benzylpiperidin-4-yl)-3,5-dichloro-4-(1-(4-cyanobenzyl)piperidin-4-yloxy)benzamide] | < 1000 nM |
| CC(C)(C)OC(=O)N1CCC(NC(=O)c2ccc(OC3CCN(Cc4ccc(C#N)cc4)CC3)cc2)CC1 [5-78, tert-butyl 4-(4-(1-(4-cyanobenzyl)piperidin-4-yloxy)benzamido)piperidine-1-carboxylate] | < 1000 nM |
| N#Cc1ccc(CN2CCC(Oc3ccc(C(=O)NC4CCNCC4)cc3)CC2)cc1 [5-79, 4-(1-(4-cyanobenzyl)piperidin-4-yloxy)-N-(piperidin-4-yl)benzamide] | > 100000 nM |
| O=C(NC1CCN(Cc2ccc(Cl)cc2)CC1)c1ccc(OC2CCN(Cc3ccc(Cl)c(Cl)c3)CC2)c(F)c1 [5-80, N-(1-(4-chlorobenzyl)piperidin-4-yl)-4-(1-(3,4-dichlorobenzyl)piperidin-4-yloxy)-3-fluorobenzamide] | < 1000 nM |
| N#Cc1ccc(N2CCC(Oc3ccc(C(=O)NC4CCN(Cc5ccc(Cl)cc5)CC4)cc3F)CC2)cc1 [5-81, N-(1-(4-chlorobenzyl)piperidin-4-yl)-4-(1-(4-cyanophenyl)piperidin-4-yloxy)-3-fluorobenzamide] | < 1000 nM |
| O=C(NC1CCN(Cc2ccccc2)CC1)c1ccc(OC2CCN(Cc3ccc(Cl)c(Cl)c3)CC2)c(F)c1 [5-82, N-(1-benzylpiperidin-4-yl)-4-(1-(3,4-dichlorobenzyl)piperidin-4-yloxy)-3-fluorobenzamide] | < 1000 nM |
| N#Cc1ccc(CN2CCC(Oc3ccc(C(=O)NC4CCN(Cc5ccncc5)CC4)cc3)CC2)cc1 [5-83, 4-(1-(4-cyanobenzyl)piperidin-4-yloxy)-N-(1-(pyridin-4-ylmethyl)piperidin-4-yl)benzamide] | < 1000 nM |
| O=C(NC1CCN(Cc2ccccc2)CC1)c1ccc(OC2CCN(Cc3ccc(Cl)c(Cl)c3)CC2)c(Cl)c1 [5-84, N-(1-benzylpiperidin-4-yl)-3-chloro-4-(1-(3,4-dichlorobenzyl)piperidin-4-yloxy)benzamide] | < 1000 nM |
| N#Cc1ccc(CN2CCC(Oc3ccc(C(=O)NC4CCN(Cc5ccccn5)CC4)cc3)CC2)cc1 [5-85, 4-(1-(4-cyanobenzyl)piperidin-4-yloxy)-N-(1-(pyridin-2-ylmethyl)piperidin-4-yl)benzamide] | < 1000 nM |
| O=C(NC1CCN(Cc2ccccc2)CC1)c1cccc(OC2CCN(c3ccccn3)CC2)c1 [5-86, N-(1-benzylpiperidin-4-yl)-3-(1-(pyridin-2-yl)piperidin-4-yloxy)benzamide] | < 1000 nM |

| SMILES | EC50 |
| --- | --- |
| O=C(NC1CCN(Cc2ccncc2)CC1)c1cccc(OC2CCN(c3ccc(C(F)(F)F)cc3)CC2)c1 [5-87, N-(1-(pyridin-4-ylmethyl)piperidin-4-yl)-3-(1-(4-(trifluoromethyl)phenyl)piperidin-4-yloxy)benzamide] | < 1000 nM |
| N#Cc1ccc(N2CCC(Oc3cccc(C(=O)NC4CCN(Cc5ccncc5)CC4)c3)CC2)cc1 [5-88, N-(1-(pyridin-4-ylmethyl)piperidin-4-yl)-3-(1-(4-cyanophenyl)piperidin-4-yloxy)benzamide] | 1000 to 10000 nM |
| N#Cc1cccc(CN2CCC(Oc3cccc(C(=O)NC4CCN(Cc5ccccc5)CC4)c3)CC2)c1 [5-89, N-(1-benzylpiperidin-4-yl)-3-(1-(3-cyanobenzyl)piperidin-4-yloxy)benzamide] | 1000 to 10000 nM |
| CC(C)(C)OC(=O)N1CCC(Oc2ccc(C(=O)NC3CCN(Cc4ccccc4)CC3)cc2Cl)CC1 [5-90, tert-butyl 4-(4-(1-benzylpiperidin-4-ylcarbamoyl)-2-chlorophenoxy)piperidine-1-carboxylate] | 1000 to 10000 nM |
| CC(C)(C)C(=O)N1CCC(Oc2ccc(C(=O)NC3CCN(Cc4ccccc4)CC3)cc2Cl)CC1 [5-91, N-(1-benzylpiperidin-4-yl)-3-chloro-4-(1-pivaloylpiperidin-4-yloxy)benzamide] | < 1000 nM |
| CC(C)(C)OC(=O)N1CCC(Oc2ccc(C(=O)NC3CCN(Cc4ccccc4)CC3)cc2F)CC1 [5-92, tert-butyl 4-(4-(1-benzylpiperidin-4-ylcarbamoyl)-2-fluorophenoxy)piperidine-1-carboxylate] | 1000 to 10000 nM |
| O=C(NC1CCN(Cc2ccccc2)CC1)c1ccc(OC2CCNCC2)c(Cl)c1 [5-93, N-(1-benzylpiperidin-4-yl)-3-chloro-4-(piperidin-4-yloxy)benzamide] | > 100000 nM |
| COc1cc(C(=O)NCCCNC(=O)OC(C)(C)C)ccc1OC1CCN(Cc2ccc(C(F)(F)F)cc2)CC1 [5-94, tert-butyl 3-(3-methoxy-4-(1-(4-(trifluoromethyl)benzyl)piperidin-4-yloxy)benzamido)propylcarbamate] | < 1000 nM |
| CC(C)(C)OC(=O)NCCCNC(=O)c1ccc(OC2CCN(Cc3ccc(C(F)(F)F)cc3)CC2)cc1 [5-95, tert-butyl 3-(4-(1-(4-(trifluoromethyl)benzyl)piperidin-4-yloxy)benzamido)propylcarbamate] | < 1000 nM |
| COc1ccc(CN2CCC(Oc3ccc(C(=O)N4CCN(C(=O)OC(C)(C)C)CC4)cc3)CC2)cc1 [5-96, tert-butyl 4-(4-(1-(4-methoxybenzyl)piperidin-4-yloxy)benzoyl)piperazine-1-carboxylate] | 1000 to 10000 nM |
| COc1ccc(CN2CCC(Oc3ccc(C(=O)NCCCNC(=O)OC(C)(C)C)cc3Cl)CC2)cc1 [5-97, tert-butyl 3-(3-chloro-4-(1-(4-methoxybenzyl)piperidin-4-yloxy)benzamido)propylcarbamate] | 1000 to 10000 nM |
| COc1cc(C(=O)NCCCN2CCOCC2)ccc1OC1CCN(Cc2ccc(Cl)cc2)CC1 [5-98] | 1000 to 10000 nM |
| CC(C)(C)OC(=O)N1CCN(C(=O)c2ccc(OC3CCN(Cc4ccccc4)CC3)cc2)CC1 [5-99, tert-butyl 4-(4-(1-benzylpiperidin-4-yloxy)benzoyl)piperazine-1-carboxylate] | 1000 to 10000 nM |
| O=C(NCCCN1CCOCC1)c1ccc(OC2CCN(Cc3ccc(Cl)cc3)CC2)cc1 [5-100, 4-(1-(4-chlorobenzyl)piperidin-4-yloxy)-N-(3-morpholinopropyl)benzamide] | 1000 to 10000 nM |
| COc1ccc(CN2CCC(Oc3ccc(C(=O)NCCCN4CCOCC4)cc3Cl)CC2)cc1 [5-101, 3-chloro-4-(1-(4-methoxybenzyl)piperidin-4-yloxy)-N-(3-morpholinopropyl)benzamide] | 10000 to 20000 nM |
| CC(C)(C)OC(=O)NCCCNC(=O)c1ccc(OC2CCN(Cc3ccccc3)CC2)c(Cl)c1 [5-102, tert-butyl 3-(4-(1-benzylpiperidin-4-yloxy)-3-chlorobenzamido)propylcarbamate] | 10000 to 20000 nM |
| O=C(c1ccc(OC2CCN(Cc3ccccc3)CC2)cc1)N1CCN(c2ccccc2)CC1 [5-103, (4-(1-benzylpiperidin-4-yloxy)phenyl)(4-phenylpiperazin-1-yl)methanone] | 20000 to 50000 nM |
| Cc1ccc(CN2CCC(Oc3ccc(C(=O)NCCCN4CCOCC4)cc3)CC2)cc1 [5-104, 4-(1-(4-methylbenzyl)piperidin-4-yloxy)-N-(3-morpholinopropyl)benzamide] | 10000 to 20000 nM |
| O=C(c1ccc(OC2CCN(Cc3ccccc3)CC2)cc1)N1CCN(Cc2ccccn2)CC1 [5-105, (4-(1-benzylpiperidin-4-yloxy)phenyl)(4-(pyridin-2-ylmethyl)piperazin-1-yl)methanone] | 10000 to 20000 nM |
